The values below are quoted from earlier work in US4127528A, “Novel derivatives of alpha-endorphin, intermediates therefor and compositions and methods employing said derivatives” (priority 1977, dated 1978).

The test system of series [1] is brain opiate receptor sites. Particulars: natural peptide.
The subject of the next series is rat. The following applies: injected directly into the brain of the rat.

With “H-Tyr-Gly-Gly-Phe-Met-OH [methionine enkephalin]”, in series [1], the “binding to partially purified brain opiate receptor sites” value was “binds stereo-specifically”. The “activity in bioassays for opiate activity” value in the series on opiate activity is on record as “very active”. Besides, the analgesic activity entry in the series on rat is “only weak analgesic activity of short duration”.
